ChEMBL document CHEMBL4823311, “Optimization of Naphthyridones into Selective TATA-Binding Protein Associated Factor 1 (TAF1) Bromodomain Inhibitors” (ACS Med Chem Lett, 2021)
In brackets after ≈: the same amount, converted by molar mass.

What was measured:
[1] = target: T1, Transcription initiation factor TFIID subunit 1 (Homo sapiens, UniProt P21675); assay: Inhibition of TAF1 bromodomain 2 (unknown origin) by TR-FRET assay
[2] = Lipophilicity, logD of the compound at pH 7.4 by chromatographic method; format: physicochemical; conditions: buffer
[3] = target: T2, Bromodomain-containing protein 4 (Homo sapiens, UniProt O60885); assay: Inhibition of BRD4 BD1 (unknown origin) by TR-FRET assay
[4] = Passive permeability of the compound across artificial membrane by AMP assay; format: ADME; conditions: PAMPA; read-out: permeability
[5] = target: T1, Transcription initiation factor TFIID subunit 1; assay: Inhibition of human partial length TAF1 bromodomain 2 (D1521 to D1656 residues) expressed in bacterial expression system by BROMOscan assay
[6] = target: T2, Bromodomain-containing protein 4; assay: Inhibition of human partial length BRD4 BD1 (N44 to E168 residues) expressed in bacterial expression system by BROMOscan assay
[7] = Intrinsic clearance in human microsomes; format: ADME, Microsome
[8] = target: T2, Bromodomain-containing protein 4; assay: Inhibition of human partial length BRD4 BD2 (K333 to E460 residues) expressed in bacterial expression system by BROMOscan assay
[9] = target: T3, Bromodomain-containing protein 9 (Homo sapiens, UniProt Q9H8M2); assay: Inhibition of human partial length BRD9 (R130 to V259 residues) expressed in bacterial expression system measured by BROMOscan assay
T3 sequence (Q9H8M2 whole entry): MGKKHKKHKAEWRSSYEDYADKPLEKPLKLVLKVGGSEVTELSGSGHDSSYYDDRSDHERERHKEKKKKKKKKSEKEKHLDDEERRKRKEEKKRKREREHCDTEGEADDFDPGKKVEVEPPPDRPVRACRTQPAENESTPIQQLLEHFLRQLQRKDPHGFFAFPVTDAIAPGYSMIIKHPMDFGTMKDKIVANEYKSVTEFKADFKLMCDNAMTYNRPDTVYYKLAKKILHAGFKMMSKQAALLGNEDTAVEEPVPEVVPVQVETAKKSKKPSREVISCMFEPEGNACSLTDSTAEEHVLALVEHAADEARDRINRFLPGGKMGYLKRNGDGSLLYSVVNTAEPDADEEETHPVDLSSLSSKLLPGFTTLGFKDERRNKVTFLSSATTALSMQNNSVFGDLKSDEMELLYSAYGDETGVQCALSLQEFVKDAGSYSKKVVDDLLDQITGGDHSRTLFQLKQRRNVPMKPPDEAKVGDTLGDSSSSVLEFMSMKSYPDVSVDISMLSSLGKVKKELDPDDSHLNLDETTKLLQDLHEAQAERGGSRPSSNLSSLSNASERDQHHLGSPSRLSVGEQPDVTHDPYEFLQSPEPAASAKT

[10] = target: Chromatin remodeling regulator CECR2 (Homo sapiens, UniProt Q9BXF3); assay: Inhibition of human partial length CECR2 (P423 to D543 residues) expressed in bacterial expression system by BROMOscan assay
Chain of Chromatin remodeling regulator CECR2 (Q9BXF3 whole entry, the tested form may be a part): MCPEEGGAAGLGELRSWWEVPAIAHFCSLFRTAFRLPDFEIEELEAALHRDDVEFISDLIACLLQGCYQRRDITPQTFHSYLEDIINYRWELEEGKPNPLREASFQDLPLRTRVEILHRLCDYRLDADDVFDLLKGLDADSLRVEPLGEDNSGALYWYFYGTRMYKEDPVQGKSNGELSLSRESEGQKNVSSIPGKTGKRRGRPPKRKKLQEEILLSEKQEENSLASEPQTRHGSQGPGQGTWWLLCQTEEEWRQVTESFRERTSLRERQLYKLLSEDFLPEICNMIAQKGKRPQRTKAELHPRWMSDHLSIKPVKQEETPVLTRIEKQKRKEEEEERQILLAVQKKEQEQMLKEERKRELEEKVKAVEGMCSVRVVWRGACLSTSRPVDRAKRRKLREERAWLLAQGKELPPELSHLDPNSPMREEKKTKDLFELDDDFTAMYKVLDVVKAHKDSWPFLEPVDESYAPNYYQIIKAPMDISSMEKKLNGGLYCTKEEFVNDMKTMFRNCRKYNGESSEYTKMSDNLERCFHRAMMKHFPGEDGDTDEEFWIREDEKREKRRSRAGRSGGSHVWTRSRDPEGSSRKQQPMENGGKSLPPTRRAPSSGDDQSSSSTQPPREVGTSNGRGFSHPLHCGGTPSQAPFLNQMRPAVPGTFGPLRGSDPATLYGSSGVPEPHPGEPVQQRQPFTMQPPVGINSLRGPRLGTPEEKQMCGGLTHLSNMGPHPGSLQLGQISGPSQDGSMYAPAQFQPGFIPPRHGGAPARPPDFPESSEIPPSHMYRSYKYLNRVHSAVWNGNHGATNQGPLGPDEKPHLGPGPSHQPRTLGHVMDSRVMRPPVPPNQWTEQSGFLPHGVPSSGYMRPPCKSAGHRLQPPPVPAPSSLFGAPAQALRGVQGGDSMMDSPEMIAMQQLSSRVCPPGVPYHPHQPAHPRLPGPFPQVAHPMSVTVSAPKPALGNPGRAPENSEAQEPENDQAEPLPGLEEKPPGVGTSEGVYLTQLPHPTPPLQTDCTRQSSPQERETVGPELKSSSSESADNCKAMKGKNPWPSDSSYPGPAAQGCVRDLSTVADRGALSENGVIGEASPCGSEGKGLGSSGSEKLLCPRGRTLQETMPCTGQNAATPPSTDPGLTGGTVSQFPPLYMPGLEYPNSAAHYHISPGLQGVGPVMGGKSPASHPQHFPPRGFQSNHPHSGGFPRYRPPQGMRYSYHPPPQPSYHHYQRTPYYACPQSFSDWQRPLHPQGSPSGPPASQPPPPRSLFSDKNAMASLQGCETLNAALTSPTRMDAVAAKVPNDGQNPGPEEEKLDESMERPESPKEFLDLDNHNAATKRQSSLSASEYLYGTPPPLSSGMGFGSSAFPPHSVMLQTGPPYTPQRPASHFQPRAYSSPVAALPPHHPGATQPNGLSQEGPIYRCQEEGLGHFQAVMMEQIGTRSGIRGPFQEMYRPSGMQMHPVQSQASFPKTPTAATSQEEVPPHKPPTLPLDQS

Peregrin = target: T4, Peregrin (Homo sapiens, UniProt P55201); assay: Inhibition of human partial length BRPF1 (E627 to G740 residues) expressed in bacterial expression system by BROMOscan assay
T4 sequence (P55201 whole entry): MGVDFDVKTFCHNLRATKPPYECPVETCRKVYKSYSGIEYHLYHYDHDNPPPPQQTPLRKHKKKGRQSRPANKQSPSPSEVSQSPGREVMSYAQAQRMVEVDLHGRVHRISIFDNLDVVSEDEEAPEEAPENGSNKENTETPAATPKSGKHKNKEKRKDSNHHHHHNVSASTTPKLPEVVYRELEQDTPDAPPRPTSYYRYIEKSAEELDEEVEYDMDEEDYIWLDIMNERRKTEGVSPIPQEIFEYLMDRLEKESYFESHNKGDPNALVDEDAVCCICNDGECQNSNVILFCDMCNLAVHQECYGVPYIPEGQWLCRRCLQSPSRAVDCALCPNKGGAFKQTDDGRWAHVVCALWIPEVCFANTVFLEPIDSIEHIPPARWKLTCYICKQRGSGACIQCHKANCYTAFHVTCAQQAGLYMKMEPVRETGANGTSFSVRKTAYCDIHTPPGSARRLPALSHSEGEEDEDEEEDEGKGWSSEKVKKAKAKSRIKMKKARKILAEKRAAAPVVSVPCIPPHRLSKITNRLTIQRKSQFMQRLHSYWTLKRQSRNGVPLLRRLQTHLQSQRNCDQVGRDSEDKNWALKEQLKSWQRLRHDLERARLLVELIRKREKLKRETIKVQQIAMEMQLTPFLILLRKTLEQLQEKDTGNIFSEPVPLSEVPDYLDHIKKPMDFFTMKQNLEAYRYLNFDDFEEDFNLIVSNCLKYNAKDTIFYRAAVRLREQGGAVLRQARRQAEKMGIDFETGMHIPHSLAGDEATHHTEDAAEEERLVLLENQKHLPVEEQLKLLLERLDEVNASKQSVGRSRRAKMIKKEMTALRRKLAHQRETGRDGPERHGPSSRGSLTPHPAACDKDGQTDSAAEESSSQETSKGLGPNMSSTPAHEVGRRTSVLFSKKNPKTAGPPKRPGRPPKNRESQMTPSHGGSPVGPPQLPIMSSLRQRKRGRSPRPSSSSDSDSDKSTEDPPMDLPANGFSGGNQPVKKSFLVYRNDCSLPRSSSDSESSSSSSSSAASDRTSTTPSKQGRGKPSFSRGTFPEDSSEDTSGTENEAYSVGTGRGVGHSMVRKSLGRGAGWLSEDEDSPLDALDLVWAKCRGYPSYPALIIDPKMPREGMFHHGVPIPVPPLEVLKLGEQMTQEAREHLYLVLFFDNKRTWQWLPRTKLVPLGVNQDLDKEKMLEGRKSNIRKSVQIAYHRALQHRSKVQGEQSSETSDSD

[11] = target: T1, Transcription initiation factor TFIID subunit 1; assay: Displacement of Halo-tagged histone H4 from NanoLuc-tagged TAF1 bromodomain 2 (unknown origin) expressed in HEK293 cells measured after 4 to 6 hrs by NanoBRET assay; format: cell-based
[12] = target: T2, Bromodomain-containing protein 4; assay: Inhibition of BRD4 BD2 (unknown origin) measured by TR-FRET assay
[13] = Solubility of the compound by CAD method; format: physicochemical

T1 sequence (P21675 whole entry): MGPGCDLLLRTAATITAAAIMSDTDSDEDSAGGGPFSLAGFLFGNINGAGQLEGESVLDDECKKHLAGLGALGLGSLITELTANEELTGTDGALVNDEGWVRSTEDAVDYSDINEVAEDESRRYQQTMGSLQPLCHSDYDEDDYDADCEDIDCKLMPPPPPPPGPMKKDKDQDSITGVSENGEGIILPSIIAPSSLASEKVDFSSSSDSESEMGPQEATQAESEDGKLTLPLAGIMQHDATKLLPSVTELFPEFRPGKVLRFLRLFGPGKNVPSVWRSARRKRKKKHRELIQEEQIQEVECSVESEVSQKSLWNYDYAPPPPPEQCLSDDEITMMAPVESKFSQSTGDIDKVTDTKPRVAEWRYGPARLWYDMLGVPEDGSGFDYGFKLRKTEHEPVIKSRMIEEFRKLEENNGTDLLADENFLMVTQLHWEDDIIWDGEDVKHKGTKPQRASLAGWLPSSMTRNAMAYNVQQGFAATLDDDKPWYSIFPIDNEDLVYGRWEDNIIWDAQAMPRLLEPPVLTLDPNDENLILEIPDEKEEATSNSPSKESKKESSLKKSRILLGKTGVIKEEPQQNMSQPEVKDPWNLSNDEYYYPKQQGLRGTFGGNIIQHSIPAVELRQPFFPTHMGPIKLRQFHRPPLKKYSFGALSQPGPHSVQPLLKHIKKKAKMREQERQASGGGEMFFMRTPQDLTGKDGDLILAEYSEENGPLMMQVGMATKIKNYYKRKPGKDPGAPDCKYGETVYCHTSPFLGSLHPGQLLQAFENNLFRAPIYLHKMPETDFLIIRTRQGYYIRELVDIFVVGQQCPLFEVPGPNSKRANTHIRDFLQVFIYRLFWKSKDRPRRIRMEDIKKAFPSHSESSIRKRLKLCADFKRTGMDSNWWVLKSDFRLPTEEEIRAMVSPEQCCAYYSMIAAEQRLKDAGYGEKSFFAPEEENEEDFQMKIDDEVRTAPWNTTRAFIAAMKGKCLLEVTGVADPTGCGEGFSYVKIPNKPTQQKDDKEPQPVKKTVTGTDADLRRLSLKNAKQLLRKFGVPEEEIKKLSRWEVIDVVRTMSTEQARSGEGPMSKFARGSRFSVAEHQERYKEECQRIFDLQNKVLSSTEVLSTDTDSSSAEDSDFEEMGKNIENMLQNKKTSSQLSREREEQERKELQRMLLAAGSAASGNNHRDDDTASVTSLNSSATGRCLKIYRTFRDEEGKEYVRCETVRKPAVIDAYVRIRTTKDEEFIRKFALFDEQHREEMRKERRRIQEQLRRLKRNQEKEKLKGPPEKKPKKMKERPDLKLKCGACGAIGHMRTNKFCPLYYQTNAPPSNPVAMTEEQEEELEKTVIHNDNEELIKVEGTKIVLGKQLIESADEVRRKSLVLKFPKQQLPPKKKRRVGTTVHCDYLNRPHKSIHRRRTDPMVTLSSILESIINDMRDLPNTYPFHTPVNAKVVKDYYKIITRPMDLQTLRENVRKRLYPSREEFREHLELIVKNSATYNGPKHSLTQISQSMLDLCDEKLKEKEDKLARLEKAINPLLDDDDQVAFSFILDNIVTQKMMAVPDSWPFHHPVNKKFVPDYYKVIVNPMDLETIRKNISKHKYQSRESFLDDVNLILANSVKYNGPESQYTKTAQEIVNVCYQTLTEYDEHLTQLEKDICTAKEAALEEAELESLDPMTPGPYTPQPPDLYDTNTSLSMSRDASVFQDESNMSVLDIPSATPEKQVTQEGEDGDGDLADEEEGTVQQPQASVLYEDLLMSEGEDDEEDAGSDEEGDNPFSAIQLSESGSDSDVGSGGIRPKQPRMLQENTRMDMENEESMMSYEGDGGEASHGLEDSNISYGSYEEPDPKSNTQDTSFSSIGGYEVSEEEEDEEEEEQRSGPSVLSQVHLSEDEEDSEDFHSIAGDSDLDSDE

- IC50 [1]: 39.8 nM
- chromatographic logD [2]: 2.7
- IC50 [3]: > 20000 nM
- Papp [4]: 6.2 ×10⁻⁶ cm/s
- Ki [5]: 0.794 nM
- Ki [6]: > 5010 nM
- CLint scaled [7]: 20.4 mL/min/kg
- Ki [8]: 794 nM
- Ki [9]: 39.8 nM
- Ki [10]: 1000 nM
- Ki (Peregrin): 5010 nM
- IC50 [11]: > 10000 nM
- IC50 [12]: 5010 nM
- solubility [13]: 24 µg/mL (≈ 53.6 µM)
Structure (SMILES): Cc1cc2c(C3=CCOCC3)cnc(NC3CCN(C(=O)C(F)(F)CN)CC3)c2[nH]c1=O
